# Calls of active or inactive are those of the source. The calls are words filed in the database; no cut-off is given here.
# Key:
# [1] = target: Sigma intracellular receptor 2 (Homo sapiens, UniProt Q5BJF2); test: GPCRScan assay: inhibition of Sigma 2; parameters: radioligand conc. used [nm] 5.0, parental cells HEKT
# [2] = target: 5-hydroxytryptamine receptor 7 (Homo sapiens, UniProt P34969); test: GPCRScan assay: inhibition of 5-HT7A; parameters: radioligand conc. used [nm] 5.0 – 6.0, parental cells Stable HEK
# [3] = target: Sigma non-opioid intracellular receptor 1 (Homo sapiens, UniProt Q99720); test: GPCRScan assay: inhibition of Sigma 1; parameters: radioligand conc. used [nm] 4.0 – 5.0, parental cells HEKT
# [4] = target: Muscarinic acetylcholine receptor M1 (Homo sapiens) (UniProt P11229); settings: Compound concentration 10.0 uM
# [5] = target: Coagulation factor X (Homo sapiens) (UniProt P00742); test: Factor Xa (h) Protease assay; settings: Compound concentration 10.0 uM
# [6] = target: Prothrombin (Homo sapiens) (UniProt P00734); test: Thrombin (h) Protease assay; settings: Compound concentration 10.0 uM
# [7] = target: T1, Mucosa-associated lymphoid tissue lymphoma translocation protein 1 (Homo sapiens, UniProt Q9UDY8); test: IL-2 – PMA + anti-CD28 + 50% Human whole blood; format: tissue-based
# T1 sequence (Q9UDY8 whole entry): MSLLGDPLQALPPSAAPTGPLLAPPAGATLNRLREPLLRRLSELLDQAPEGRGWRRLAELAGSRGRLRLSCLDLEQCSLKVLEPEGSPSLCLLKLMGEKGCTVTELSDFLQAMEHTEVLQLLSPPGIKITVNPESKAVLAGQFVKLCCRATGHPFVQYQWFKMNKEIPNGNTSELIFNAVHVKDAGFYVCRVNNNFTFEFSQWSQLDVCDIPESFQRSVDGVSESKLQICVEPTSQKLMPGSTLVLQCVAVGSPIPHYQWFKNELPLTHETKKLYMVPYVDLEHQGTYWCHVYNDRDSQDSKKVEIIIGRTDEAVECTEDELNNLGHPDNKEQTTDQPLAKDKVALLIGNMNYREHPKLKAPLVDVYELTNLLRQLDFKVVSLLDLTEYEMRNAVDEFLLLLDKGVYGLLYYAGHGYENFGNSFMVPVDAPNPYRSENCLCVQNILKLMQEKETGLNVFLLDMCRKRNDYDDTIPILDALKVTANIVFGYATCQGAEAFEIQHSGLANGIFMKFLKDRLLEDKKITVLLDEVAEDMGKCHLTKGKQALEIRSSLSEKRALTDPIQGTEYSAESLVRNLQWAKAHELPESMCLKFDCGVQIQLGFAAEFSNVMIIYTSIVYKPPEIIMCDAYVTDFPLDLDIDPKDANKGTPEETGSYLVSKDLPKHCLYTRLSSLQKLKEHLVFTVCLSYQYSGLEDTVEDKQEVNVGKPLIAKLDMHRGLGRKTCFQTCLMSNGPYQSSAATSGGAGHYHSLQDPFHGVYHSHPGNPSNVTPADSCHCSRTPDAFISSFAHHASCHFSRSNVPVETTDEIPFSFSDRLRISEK
# [8] = target: T1, Mucosa-associated lymphoid tissue lymphoma translocation protein 1; test: IL-2 – PMA + anti-CD28 + 50% Rat whole blood; format: tissue-based; settings: target entry is the homologue from another species
# [9] = target: Histamine H3 receptor (Homo sapiens) (UniProt Q9Y5N1); settings: Compound concentration 10.0 uM
# [10] = target: Cathepsin D (Homo sapiens) (UniProt P07339); test: Cathepsin D (h) Protease assay; settings: Compound concentration 10.0 uM
# [11] = target: Neutrophil elastase (Homo sapiens) (UniProt P08246); test: Neutrophil elastase 2 (h) Protease assay; settings: Compound concentration 10.0 uM
# [12] = target: Cathepsin B (Homo sapiens) (UniProt P07858); test: Cathepsin B (h) Protease assay; settings: Compound concentration 10.0 uM
# [13] = target: Procathepsin L (Homo sapiens) (UniProt P07711); test: Cathepsin L (h) Protease assay; settings: Compound concentration 10.0 uM
# [14] = target: Cathepsin G (Homo sapiens) (UniProt P08311); test: Cathepsin G (h) Protease assay; settings: Compound concentration 10.0 uM
# [15] = target: Neutrophil collagenase (Homo sapiens) (UniProt P22894); test: MMP-8 (h) Protease assay; settings: Compound concentration 10.0 uM
# [16] = target: T1, Mucosa-associated lymphoid tissue lymphoma translocation protein 1; test: Human biochemical (TR-FRET) assay (low salt)
# Trypsin (Homo sapiens) = Trypsin (Homo sapiens) (UniProt P07477+P07478+P35030); test: Trypsin (h) Protease assay; format: protein assay; settings: Compound concentration 10.0 uM
# [17] = target: Beta-2 adrenergic receptor (Homo sapiens) (UniProt P07550); settings: Compound concentration 10.0 uM
# [18] = target: Cathepsin S (Homo sapiens) (UniProt P25774); test: Cathepsin S (h) Protease assay; settings: Compound concentration 10.0 uM
# [19] = target: Plasma kallikrein (Homo sapiens) (UniProt P03952); test: Plasma Kallikrein Protease assay; settings: Compound concentration 10.0 uM
# Chymase (Homo sapiens) = Chymase (Homo sapiens) (UniProt P23946); test: Chymase (h) Protease assay; settings: Compound concentration 10.0 uM
# [20] = target: Beta-1 adrenergic receptor (Homo sapiens) (UniProt P08588); settings: Compound concentration 10.0 uM
# Beta-1 adrenergic receptor (Homo sapiens), sequence (P08588 whole entry, looked up): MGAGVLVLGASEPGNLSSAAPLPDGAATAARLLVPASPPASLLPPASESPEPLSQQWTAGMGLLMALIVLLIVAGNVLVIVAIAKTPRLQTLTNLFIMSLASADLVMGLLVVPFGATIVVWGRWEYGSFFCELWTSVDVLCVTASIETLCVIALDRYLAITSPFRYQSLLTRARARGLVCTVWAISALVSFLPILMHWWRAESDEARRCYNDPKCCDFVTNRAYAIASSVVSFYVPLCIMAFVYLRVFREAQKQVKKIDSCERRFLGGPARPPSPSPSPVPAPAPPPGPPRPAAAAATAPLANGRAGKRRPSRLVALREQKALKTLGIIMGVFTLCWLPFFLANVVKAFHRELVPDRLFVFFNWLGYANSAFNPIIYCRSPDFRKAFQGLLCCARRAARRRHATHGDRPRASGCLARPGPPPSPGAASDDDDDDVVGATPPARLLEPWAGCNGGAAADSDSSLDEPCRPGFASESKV
# Cathepsin S (Homo sapiens), sequence (P25774 115-331 limits assumed): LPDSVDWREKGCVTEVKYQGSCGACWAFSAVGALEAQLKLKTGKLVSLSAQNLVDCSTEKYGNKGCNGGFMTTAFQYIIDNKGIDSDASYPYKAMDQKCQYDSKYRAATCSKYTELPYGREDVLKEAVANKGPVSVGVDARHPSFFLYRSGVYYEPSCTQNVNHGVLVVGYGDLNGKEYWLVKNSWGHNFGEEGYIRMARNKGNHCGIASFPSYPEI
# Neutrophil collagenase (Homo sapiens), sequence (P22894 101-467 limits assumed): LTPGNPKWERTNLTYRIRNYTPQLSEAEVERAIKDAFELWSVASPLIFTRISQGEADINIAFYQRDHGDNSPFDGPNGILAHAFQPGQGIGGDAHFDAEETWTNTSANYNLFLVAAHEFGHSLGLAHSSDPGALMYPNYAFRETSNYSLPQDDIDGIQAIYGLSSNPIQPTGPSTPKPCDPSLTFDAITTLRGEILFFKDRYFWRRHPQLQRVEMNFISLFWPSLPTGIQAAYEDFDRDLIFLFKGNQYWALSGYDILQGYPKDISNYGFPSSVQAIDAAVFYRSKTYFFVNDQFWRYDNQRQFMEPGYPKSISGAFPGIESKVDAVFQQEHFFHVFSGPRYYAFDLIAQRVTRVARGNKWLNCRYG
# Neutrophil elastase (Homo sapiens), sequence (P08246 whole entry): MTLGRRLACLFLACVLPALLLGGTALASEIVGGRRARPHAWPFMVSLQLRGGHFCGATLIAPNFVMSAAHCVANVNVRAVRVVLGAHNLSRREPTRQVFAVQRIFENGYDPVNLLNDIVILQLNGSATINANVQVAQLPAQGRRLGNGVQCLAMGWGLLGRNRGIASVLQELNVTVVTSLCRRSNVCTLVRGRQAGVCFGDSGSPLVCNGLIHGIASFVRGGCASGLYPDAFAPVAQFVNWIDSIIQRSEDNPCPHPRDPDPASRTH
# Sigma non-opioid intracellular receptor 1, sequence (Q99720 whole entry): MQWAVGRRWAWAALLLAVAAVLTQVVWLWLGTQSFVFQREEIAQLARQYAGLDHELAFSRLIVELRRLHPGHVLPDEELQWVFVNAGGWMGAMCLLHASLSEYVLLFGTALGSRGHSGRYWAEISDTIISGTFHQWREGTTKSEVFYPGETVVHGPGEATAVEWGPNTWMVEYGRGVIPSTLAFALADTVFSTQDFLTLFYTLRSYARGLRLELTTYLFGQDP
# Cathepsin D (Homo sapiens), sequence (P07339 65-162 limits assumed): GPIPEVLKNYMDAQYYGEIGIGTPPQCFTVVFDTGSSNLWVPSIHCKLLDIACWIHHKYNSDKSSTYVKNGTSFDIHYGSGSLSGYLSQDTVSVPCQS
# Cathepsin D (Homo sapiens), sequence (P07339 169-412 limits assumed): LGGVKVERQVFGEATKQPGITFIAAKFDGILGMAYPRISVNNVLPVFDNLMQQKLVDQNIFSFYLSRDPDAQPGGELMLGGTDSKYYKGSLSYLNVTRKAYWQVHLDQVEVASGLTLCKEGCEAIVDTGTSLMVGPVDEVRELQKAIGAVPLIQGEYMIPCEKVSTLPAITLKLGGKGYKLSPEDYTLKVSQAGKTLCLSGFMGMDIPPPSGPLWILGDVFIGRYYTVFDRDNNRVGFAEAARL
# Chymase (Homo sapiens), sequence (P23946 whole entry): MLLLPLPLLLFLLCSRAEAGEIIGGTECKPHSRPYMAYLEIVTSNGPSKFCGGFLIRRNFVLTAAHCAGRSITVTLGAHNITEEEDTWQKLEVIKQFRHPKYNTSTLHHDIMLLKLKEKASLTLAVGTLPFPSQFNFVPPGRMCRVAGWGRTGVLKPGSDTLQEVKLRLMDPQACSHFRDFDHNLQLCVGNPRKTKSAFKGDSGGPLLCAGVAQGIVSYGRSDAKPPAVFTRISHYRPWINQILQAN
# Cathepsin G (Homo sapiens), sequence (P08311 whole entry): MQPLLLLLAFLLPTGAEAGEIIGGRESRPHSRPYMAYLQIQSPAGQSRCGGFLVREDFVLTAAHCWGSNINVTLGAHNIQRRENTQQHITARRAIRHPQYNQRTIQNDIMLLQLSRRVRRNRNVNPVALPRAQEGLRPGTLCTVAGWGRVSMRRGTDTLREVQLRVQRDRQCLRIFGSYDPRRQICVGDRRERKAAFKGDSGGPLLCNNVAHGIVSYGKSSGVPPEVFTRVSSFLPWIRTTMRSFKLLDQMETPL
# 5-hydroxytryptamine receptor 7, sequence (P34969 whole entry): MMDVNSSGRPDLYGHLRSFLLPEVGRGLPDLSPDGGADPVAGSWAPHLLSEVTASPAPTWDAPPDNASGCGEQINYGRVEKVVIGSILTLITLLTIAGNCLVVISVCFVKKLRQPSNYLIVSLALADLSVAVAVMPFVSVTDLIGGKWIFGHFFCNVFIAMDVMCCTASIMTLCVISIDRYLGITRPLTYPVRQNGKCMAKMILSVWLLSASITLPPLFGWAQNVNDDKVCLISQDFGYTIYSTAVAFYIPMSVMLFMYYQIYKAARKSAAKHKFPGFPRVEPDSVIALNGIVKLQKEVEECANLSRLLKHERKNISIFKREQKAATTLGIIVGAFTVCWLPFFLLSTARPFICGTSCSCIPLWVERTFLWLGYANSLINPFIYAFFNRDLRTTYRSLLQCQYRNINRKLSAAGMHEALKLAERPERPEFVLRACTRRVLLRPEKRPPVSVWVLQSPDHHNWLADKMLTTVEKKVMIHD
# Muscarinic acetylcholine receptor M1 (Homo sapiens), sequence (P11229 whole entry): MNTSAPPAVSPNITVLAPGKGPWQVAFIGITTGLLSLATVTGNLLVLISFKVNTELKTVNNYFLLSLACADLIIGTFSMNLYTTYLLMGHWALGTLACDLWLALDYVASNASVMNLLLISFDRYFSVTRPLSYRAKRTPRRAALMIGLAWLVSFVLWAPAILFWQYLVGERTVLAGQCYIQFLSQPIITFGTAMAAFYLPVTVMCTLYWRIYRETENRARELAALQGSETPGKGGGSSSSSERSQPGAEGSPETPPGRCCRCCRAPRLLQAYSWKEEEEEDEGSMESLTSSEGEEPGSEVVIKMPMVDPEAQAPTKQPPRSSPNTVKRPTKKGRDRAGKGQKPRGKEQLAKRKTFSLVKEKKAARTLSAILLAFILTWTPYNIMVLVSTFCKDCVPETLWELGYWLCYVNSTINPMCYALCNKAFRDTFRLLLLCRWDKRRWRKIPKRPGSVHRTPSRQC
# Sigma intracellular receptor 2, sequence (Q5BJF2 whole entry): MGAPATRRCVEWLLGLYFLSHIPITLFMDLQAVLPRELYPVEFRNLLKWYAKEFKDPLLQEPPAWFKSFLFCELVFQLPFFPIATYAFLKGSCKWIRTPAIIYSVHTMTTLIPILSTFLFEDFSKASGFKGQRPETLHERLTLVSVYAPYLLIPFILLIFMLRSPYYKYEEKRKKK
# Plasma kallikrein (Homo sapiens), sequence (P03952 20-390 limits assumed): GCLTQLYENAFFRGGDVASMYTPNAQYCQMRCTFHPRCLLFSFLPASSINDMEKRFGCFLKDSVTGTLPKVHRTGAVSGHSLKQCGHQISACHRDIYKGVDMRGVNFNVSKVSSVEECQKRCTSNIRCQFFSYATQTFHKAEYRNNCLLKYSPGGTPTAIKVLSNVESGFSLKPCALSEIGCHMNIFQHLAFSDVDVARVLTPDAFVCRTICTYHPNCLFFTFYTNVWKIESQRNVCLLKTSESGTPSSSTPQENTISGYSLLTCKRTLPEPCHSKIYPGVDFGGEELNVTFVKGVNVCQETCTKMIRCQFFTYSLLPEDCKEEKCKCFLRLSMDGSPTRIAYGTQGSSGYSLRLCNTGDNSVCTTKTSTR
# Plasma kallikrein (Homo sapiens), sequence (P03952 391-638 limits assumed): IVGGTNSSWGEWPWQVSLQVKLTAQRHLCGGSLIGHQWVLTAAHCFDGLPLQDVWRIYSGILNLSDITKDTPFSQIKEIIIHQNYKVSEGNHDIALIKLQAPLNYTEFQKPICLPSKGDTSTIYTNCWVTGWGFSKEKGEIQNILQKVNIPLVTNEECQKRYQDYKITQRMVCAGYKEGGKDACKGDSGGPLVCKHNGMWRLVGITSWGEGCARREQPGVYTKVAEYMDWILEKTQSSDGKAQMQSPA
# Beta-2 adrenergic receptor (Homo sapiens), sequence (P07550 whole entry, looked up): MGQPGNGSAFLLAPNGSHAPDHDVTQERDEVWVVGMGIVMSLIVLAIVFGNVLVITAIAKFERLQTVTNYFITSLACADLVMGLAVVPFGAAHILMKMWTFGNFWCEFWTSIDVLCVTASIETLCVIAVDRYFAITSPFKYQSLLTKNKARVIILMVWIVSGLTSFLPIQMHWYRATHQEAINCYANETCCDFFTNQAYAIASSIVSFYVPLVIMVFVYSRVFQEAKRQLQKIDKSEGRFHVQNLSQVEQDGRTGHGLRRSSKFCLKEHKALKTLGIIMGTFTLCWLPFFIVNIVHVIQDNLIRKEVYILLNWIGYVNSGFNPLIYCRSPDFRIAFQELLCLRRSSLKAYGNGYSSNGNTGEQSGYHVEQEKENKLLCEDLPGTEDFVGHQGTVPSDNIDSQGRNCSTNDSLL
# Procathepsin L (Homo sapiens), sequence (P07711 114-333 limits assumed): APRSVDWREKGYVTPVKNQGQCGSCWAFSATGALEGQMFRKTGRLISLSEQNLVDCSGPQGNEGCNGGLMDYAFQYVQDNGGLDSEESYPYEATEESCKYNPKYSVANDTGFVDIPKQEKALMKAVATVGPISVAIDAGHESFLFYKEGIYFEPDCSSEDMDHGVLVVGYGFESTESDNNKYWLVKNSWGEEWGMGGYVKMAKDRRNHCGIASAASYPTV
compound,measurement,setting,value
CO[C@@H](C)c1c(Nc2ccc([C@@H](N(C)C(=O)C3CCS(=O)(=O)CC3)C(F)(F)F)cc2)cnc2cc(Cl)nn12 [NVS-MALT1-C],Ki,[1],890 nM
same,Ki,[2],10 µM
same,Ki,[3],1590 nM
same,inhibition,[4],-2.39%
CO[C@@H](C)c1c(Nc2ccc([C@H](N(C)C(=O)C3CCS(=O)(=O)CC3)C(F)(F)F)cc2)cnc2cc(Cl)nn12 [NVS-MALT1],inhibition,[5],-9%
same,inhibition,[6],0%
same,IC50,[7],200 nM (active)
same,IC50,[8],130 nM (active)
same,inhibition,[9],-5.74%
same,inhibition,[10],0%
same,inhibition,[11],-1%
same,inhibition,[12],-4%
same,inhibition,[13],-3%
same,inhibition,[14],7%
same,inhibition,[15],0%
same,IC50,[16],18 nM (active)
same,inhibition,Trypsin (Homo sapiens),0.8%
same,inhibition,[17],26.7%
same,inhibition,[18],7%
same,inhibition,[19],5%
same,inhibition,Chymase (Homo sapiens),-3%
same,inhibition,[20],20.6%
